Reference: patent US8993564B2, “7-azaindole derivatives suitable for treatment of cancers” (Merck Patent GmbH, priority 2011, dated 2015)

What was measured:
PDK1 = molecular target: T1, PDK1 (Homo sapiens, UniProt O15530); test: Test for the inhibition of PDK1 (flashplate, 33P-ATP), enzymatic; format: biochemical; settings: prior art compounds vs compounds according to the invention
T1 construct: His6 (N)
T1 sequence (O15530 51-556 limits assumed): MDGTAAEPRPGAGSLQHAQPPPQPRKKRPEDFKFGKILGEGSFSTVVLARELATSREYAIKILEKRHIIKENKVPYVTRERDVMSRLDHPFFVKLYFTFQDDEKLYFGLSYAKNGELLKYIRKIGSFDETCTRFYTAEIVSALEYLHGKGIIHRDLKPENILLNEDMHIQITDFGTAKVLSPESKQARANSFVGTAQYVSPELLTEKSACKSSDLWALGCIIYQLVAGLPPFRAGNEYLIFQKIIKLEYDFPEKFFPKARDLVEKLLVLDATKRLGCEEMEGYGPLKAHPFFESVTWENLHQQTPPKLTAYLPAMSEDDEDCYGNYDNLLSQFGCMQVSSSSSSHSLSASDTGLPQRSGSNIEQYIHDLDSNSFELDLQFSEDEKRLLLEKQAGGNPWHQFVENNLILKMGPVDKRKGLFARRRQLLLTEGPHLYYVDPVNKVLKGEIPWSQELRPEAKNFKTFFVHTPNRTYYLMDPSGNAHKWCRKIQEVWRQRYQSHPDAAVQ
Description: 4.0 Test for the Inhibition of PDK1
The experimental batches are carried out in a flashplate system with 384 wells/microtitration plate.
In each case, the PDK1 sample His6-PDK1(1-50)(3.4 nM), the PDK1 substrate biotin-bA-bA-[…] (400 nM), 4 μM ATP (with 0.2 μCi of ^33P-ATP/well) and the test substance in 50 μl of conventional experimental solution per well are incubated at 30° C. for 60 min. The test substances are employed in corresponding concentrations (if desired in a dilution series). The control is carried out without test substance. The reaction is stopped using standard methods and washed. The activity of the kinase is measured via the incorporated radioactivity in top count. In order to determine the non-specific kinase reaction (blank value), the experimental batches are carried out in the presence of 100 nM staurosporine.
The radioactivity (decompositions per minute) of the blank value (no use of test substance in the presence of staurosporine) is subtracted from all other radioactivity values. The controls (kinase activity without test substance) are set equal to 100 percent and all other radioactivity values (after subtracting the blank value) are expressed set in relation thereto (for example in % of the control).
IC50 values (50% inhibition) are determined with the aid of statistics programmes, such as, for example, RS1.

| melting point [°C] | inhibition of PDK1 (enzymatic), activity compared with the compounds according to the invention (PDK1) | Compound |
| --- | --- | --- |
| 295 to 297 | – | Cn1cc(-c2cnc3[nH]cc(-c4nnc(Nc5ccccc5F)o4)c3c2)cn1 [Compound 60] |
| 274 to 275 | – | CCOc1ccccc1Nc1nnc(-c2c[nH]c3ncc(-c4cnn(C)c4)cc23)o1 [Compound 62, (2-Ethoxyphenyl)-{5-[5-(1-methyl-1H-pyrazol-4-yl)-1H-pyrrolo[2,3-b]-pyridin-3-yl]-1,3,4-oxadiazol-2-yl}-amine] |
| 253 to 254 | – | COc1ccccc1CNc1nnc(-c2c[nH]c3ncc(-c4cnn(C)c4)cc23)o1 [Compound 63, (2-Methoxybenzyl)-{5-[5-(1-methyl-1H-pyrazol-4-yl)-1H-pyrrolo[2,3-b]-pyridin-3-yl]-1,3,4-oxadiazol-2-yl}-amine] |
| 324 to 326 | – | Cn1cc(-c2cnc3[nH]cc(-c4nnc(Nc5ccccc5)o4)c3c2)cn1 [Compound 75, {5-[5-(1-Methyl-1H-pyrazol-4-yl)-1H-pyrrolo[2,3-b]pyridin-3-yl]-1,3,4-oxadiazol-2-yl}phenylamine] |
| 281 to 283 | – | Cn1cc(-c2cnc3[nH]cc(-c4nnc(NCc5ccc6c(c5)OCO6)o4)c3c2)cn1 [Compound 82, Benzo-1,3-dioxol-5-ylmethyl-{5-[5-(1-methyl-1H-pyrazol-4-yl)-1H-pyrrolo[2,3-b]pyridin-3-yl]-1,3,4-oxadiazol-2-yl}amine] |
| – | lower activity | c1cncc(CNc2nnc(-c3c[nH]c4ncccc34)o2)c1 [Compound 88, Pyridin-3-ylmethyl-[5-(1H-pyrrolo-[2,3-b]pyridin-3-yl)-1,3,4-oxadiazol-2-yl]amine] |
| – | lower activity | COc1cc(Nc2nnc(-c3c[nH]c4ncccc34)o2)cc(OC)c1 [Compound 89, (3,5-Dimethoxyphenyl)-[5-(1H-pyrrolo[2,3-b]pyridin-3-yl)-1,3,4-oxadiazol-2-yl]amine] |
| – | lower activity | COc1cccc(CNc2nnc(-c3c[nH]c4ncc(-c5cn[nH]c5)cc34)o2)c1 [Compound 90, (3-Methoxybenzyl)-{5-[5-(1H-pyrazol-4-yl)-1H-pyrrolo [2,3-b]pyridin-3-yl]-1,3,4-oxadiazol-2-yl}amine] |
| – | lower activity | COc1cccc(CNc2nnc(-c3c[nH]c4ncccc34)o2)c1 [Compound 95, (3-Methoxybenzyl)-[5-(1H-pyrrolo-[2,3-b]pyridin-3-yl)-1,3,4-oxadiazol-2-yl]amine] |
